Experimental data from the NIST ThermoML archive (doi:10.1016/j.jct.2014.07.003).

Test: mn = molality of the nth substance listed, in mol/kg
Conditions: 99 kPa, Liquid, Alternating current cell with electrodes

CCCCCCCCCCCC[N+](C)(C)C.[Br-] [dodecyltrimethylammonium bromide] + O
electrical conductivity [S/m]
Conditions	303.15 K	308.15 K	313.15 K	318.15 K
m1 = 0.0015	–	0.0153	0.0169	0.018
m1 = 0.003	–	0.0286	0.032	0.034
m1 = 0.0045	–	0.042	0.0469	0.049
m1 = 0.0059	–	0.0547	0.0605	0.0645
m1 = 0.0073	–	0.0675	0.0749	0.0771
m1 = 0.0087	–	0.0795	0.088	0.0905
m1 = 0.0101	–	0.0903	0.101	0.103
m1 = 0.0116	–	0.102	0.114	0.116
m1 = 0.013	–	0.113	0.126	0.128
m1 = 0.0144	–	0.123	0.135	0.138
m1 = 0.0157	0.129	0.131	0.142	0.145
m1 = 0.017	0.134	0.136	0.146	0.15
m1 = 0.0184	0.137	0.14	0.15	0.154
m1 = 0.0197	0.14	0.142	0.154	0.158
m1 = 0.021	0.143	0.145	0.157	0.161
m1 = 0.0223	0.146	0.148	0.159	0.163
m1 = 0.0236	0.149	0.152	0.162	0.167
m1 = 0.0249	0.151	0.154	0.164	0.17
m1 = 0.0274	0.155	0.158	0.168	0.174
m1 = 0.0286	0.157	0.16	0.17	0.177
m1 = 0.0298	0.159	0.162	0.172	0.179
